Laboratory results as given in ChEMBL document CHEMBL1158176, “Flexible computational docking studies of new aminoglycosides targeting RNA 16S bacterial ribosome site” (Eur J Med Chem, 2008).

Assay: Binding affinity to bacterial 16S RNA ribosomal A site by surface plasmon technique

Row | Structure (SMILES) | Kd [µM]
1 | NC[C@H]1O[C@H](O[C@H]2[C@@H](NCCNC(=O)[C@H]3O[C@@H](n4cnc5c(N)ncnc54)[C@H](O)[C@@H]3O)[C@@H](O)[C@H](N)C[C@@H]2N)[C@H](N)[C@@H](O)[C@@H]1O | 10
2 | Cc1cn([C@H]2C[C@H](O)[C@@H](CSCCO[C@@H]3O[C@H](CO[C@@H]4O[C@H](CN)[C@@H](O)[C@H](O)[C@H]4N)[C@@H](O)[C@H](O)[C@H]3N)O2)c(=O)[nH]c1=O | 370
3 | NC[C@H]1O[C@@H](OC[C@H]2O[C@@H](SCCCCCCSC[C@H]3O[C@@H](n4ccc(=O)[nH]c4=O)[C@H](O)[C@@H]3O)[C@H](N)[C@@H](O)[C@@H]2O)[C@H](N)[C@@H](O)[C@@H]1O | 1100
4 | Cc1cn([C@H]2C[C@H](O)[C@@H](CSCCCCCCS[C@@H]3O[C@H](COC4O[C@H](CN)[C@@H](O)[C@H](O)[C@H]4N)[C@@H](O)[C@H](O)[C@H]3O)O2)c(=O)[nH]c1=O (stereo partly specified) | 400
5 | Cc1cn([C@H]2C[C@H](O)[C@@H](C(=O)NCCN[C@H]3[C@@H](O)[C@H](N)C[C@H](N)[C@H]3O[C@H]3O[C@H](CN)[C@@H](O)[C@H](O)[C@H]3N)O2)c(=O)[nH]c1=O | 9
6 | Cc1cn([C@@H]2O[C@H](C(=O)NCCCCCCN[C@H]3[C@@H](O)[C@H](N)C[C@H](N)[C@H]3O[C@H]3O[C@H](CN)[C@@H](O)[C@H](O)[C@H]3N)[C@@H](O)[C@H]2O)c(=O)[nH]c1=O | 38
7 | NC[C@H]1O[C@H](O[C@H]2[C@@H](NCCCCCCNC(=O)[C@H]3O[C@@H](n4ccc(N)nc4=O)[C@H](O)[C@@H]3O)[C@@H](O)[C@H](N)C[C@@H]2N)[C@H](N)[C@@H](O)[C@@H]1O | 104
8 | NC[C@H]1O[C@@H](OC[C@H]2O[C@@H](OCCSC[C@H]3O[C@@H](n4ccc(N)nc4=O)[C@H](O)[C@@H]3O)[C@H](N)[C@@H](O)[C@@H]2O)[C@H](N)[C@@H](O)[C@@H]1O | 667
9 | Cc1cn([C@H]2C[C@H](O)[C@@H](CSCCCCCCS[C@@H]3O[C@H](CN)[C@@H](O)[C@H](O)[C@H]3O)O2)c(=O)[nH]c1=O | 117
10 | NC[C@H]1O[C@H](O[C@H]2[C@@H](NCCNC(=O)[C@H]3O[C@@H](n4ccc(=O)[nH]c4=O)[C@H](O)[C@@H]3O)[C@@H](O)[C@H](N)C[C@@H]2N)[C@H](N)[C@@H](O)[C@@H]1O | 13
11 | NC[C@H]1O[C@H](O[C@H]2[C@@H](NCCCCCCNC(=O)[C@H]3O[C@@H](n4cnc5c(N)ncnc54)[C@H](O)[C@@H]3O)[C@@H](O)[C@H](N)C[C@@H]2N)[C@H](N)[C@@H](O)[C@@H]1O | 17
12 | Cc1cn([C@H]2C[C@H](O)[C@@H](C(=O)NCCCCCCN[C@H]3[C@@H](O)[C@H](N)C[C@H](N)[C@H]3O[C@H]3O[C@H](CN)[C@@H](O)[C@H](O)[C@H]3N)O2)c(=O)[nH]c1=O | 56
13 | NC[C@H]1O[C@@H](OC[C@H]2O[C@@H](OC[C@H]3O[C@@H](n4ccc(=O)[nH]c4=O)[C@H](O)[C@@H]3O)[C@H](N)[C@@H](O)[C@@H]2O)[C@H](N)[C@@H](O)[C@@H]1O | 2000
14 | NC[C@H]1O[C@H](O[C@H]2[C@@H](NCCNC(=O)[C@H]3O[C@@H](n4ccc(N)nc4=O)[C@H](O)[C@@H]3O)[C@@H](O)[C@H](N)C[C@@H]2N)[C@H](N)[C@@H](O)[C@@H]1O | 79
15 | NC[C@H]1O[C@@H](SCCCCCCSC[C@H]2O[C@@H](n3ccc(=O)[nH]c3=O)[C@H](O)[C@@H]2O)[C@H](N)[C@@H](O)[C@@H]1O | 1250
16 | Cc1cn([C@H]2C[C@H](O)[C@@H](CO[C@@H]3O[C@H](CO[C@@H]4O[C@H](CN)[C@@H](O)[C@H](O)[C@H]4N)[C@@H](O)[C@H](O)[C@H]3N)O2)c(=O)[nH]c1=O | 667
